Reference: publication PMC9762331 (Cancer Discovery, 2021)
Entries after “also recorded” stand apart in the source; their conditions may differ.

What was measured:
[1] = tested on: primary human hepatocytes; assay: Cytotoxicity in primary human hepatocytes; format: cell-based; conditions: tested up to 100 μmol/L
[2] = tested on: SW48 isogenic PIK3CA-mutant and parental WT cells; assay: Potency comparison in SW48 isogenic mutant versus WT cells; format: cell-based, human; conditions: for potency differential in mutant versus WT isogenic SW48 cells: viability EC50, mutant versus WT
[3] = tested on: HCC1954, KPL-4, and HCI-003 PDX; assay: Efficacy in PIK3CA-mutant xenograft and PDX models; format: in vivo, mouse; conditions: HCC1954, KPL-4, HCI-003 PDX; dosed orally and daily
[4] = tested on: PIK3CA E545K-mutant MCF7 cells; assay: CyQuant growth rate inhibition; format: cell-based; conditions: all combination treatments (± E2, ± 0.15 μmol/L palbociclib)
[5] = target: membrane-associated p110a in p110a-mutant HCC1954 xenograft model (Homo sapiens, UniProt P42336, H1047R); assay: Membrane-associated p110a in HCC1954 xenograft tumors; format: in vivo, mouse
Chain of membrane-associated p110a in p110a-mutant HCC1954 xenograft model (P42336 whole entry H1047R): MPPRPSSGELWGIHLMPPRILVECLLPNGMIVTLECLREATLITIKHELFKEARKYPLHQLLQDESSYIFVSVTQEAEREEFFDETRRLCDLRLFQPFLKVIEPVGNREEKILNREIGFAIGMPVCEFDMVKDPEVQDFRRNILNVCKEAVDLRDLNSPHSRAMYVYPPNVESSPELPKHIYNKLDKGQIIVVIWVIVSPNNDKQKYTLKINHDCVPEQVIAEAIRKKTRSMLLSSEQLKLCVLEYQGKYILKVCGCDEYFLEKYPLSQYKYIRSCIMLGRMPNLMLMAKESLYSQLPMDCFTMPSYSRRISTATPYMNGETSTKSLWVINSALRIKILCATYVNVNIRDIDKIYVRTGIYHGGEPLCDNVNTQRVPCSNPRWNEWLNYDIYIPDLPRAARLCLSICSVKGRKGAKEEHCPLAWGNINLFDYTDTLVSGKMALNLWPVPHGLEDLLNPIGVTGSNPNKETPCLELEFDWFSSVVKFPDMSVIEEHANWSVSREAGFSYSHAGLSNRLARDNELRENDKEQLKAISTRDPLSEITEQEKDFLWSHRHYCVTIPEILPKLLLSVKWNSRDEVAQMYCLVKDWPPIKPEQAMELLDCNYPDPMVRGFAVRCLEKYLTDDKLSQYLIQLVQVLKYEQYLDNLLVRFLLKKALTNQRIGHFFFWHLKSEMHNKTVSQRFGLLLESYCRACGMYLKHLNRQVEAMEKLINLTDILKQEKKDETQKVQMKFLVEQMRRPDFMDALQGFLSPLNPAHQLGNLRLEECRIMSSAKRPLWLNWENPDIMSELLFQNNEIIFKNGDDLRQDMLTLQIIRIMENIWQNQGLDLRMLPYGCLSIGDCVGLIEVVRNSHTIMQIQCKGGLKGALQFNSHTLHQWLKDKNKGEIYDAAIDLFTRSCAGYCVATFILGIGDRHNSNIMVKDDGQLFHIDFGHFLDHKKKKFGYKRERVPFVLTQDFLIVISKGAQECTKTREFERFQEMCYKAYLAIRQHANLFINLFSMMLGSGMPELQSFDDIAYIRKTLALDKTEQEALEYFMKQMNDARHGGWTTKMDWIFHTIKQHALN

[6] = tested on: HER2-positive PIK3CA-mutant breast tumor lines (n = 6); assay: ATP cell viability, HER2-positive PIK3CA-mutant breast lines; format: cell-based; conditions: HER2 amplified PIK3CA-mutant cell lines, 5 days
[7] = tested on: HER2-negative PIK3CA-mutant breast tumor lines (n = 10); assay: ATP cell viability, HER2-negative PIK3CA-mutant breast lines; format: cell-based; conditions: 5 days
[8] = tested on: pAKT in HER2-amplified PIK3CA-mutant cells (HCC1954, HCC202, MDA-MB-453); assay: pAKT Western blot time course; format: cell-based; conditions: 0.5 μmol/L GDC-0077 or 1 μmol/L BYL719
[9] = tested on: p110a in PIK3CA-mutant breast cancer lines; conditions: treatment for 24 hours
[10] = target: H1047R mutant p110a in HCC1954 parental cells (Homo sapiens, UniProt P42336, H1047R); conditions: 24 hours, 500 nmol/L, P = 0.00016
Chain of H1047R mutant p110a in HCC1954 parental cells (P42336 whole entry H1047R): as above
Chain of H1047R mutant p110a in HCC1954 parental cells (O00459 whole entry partner): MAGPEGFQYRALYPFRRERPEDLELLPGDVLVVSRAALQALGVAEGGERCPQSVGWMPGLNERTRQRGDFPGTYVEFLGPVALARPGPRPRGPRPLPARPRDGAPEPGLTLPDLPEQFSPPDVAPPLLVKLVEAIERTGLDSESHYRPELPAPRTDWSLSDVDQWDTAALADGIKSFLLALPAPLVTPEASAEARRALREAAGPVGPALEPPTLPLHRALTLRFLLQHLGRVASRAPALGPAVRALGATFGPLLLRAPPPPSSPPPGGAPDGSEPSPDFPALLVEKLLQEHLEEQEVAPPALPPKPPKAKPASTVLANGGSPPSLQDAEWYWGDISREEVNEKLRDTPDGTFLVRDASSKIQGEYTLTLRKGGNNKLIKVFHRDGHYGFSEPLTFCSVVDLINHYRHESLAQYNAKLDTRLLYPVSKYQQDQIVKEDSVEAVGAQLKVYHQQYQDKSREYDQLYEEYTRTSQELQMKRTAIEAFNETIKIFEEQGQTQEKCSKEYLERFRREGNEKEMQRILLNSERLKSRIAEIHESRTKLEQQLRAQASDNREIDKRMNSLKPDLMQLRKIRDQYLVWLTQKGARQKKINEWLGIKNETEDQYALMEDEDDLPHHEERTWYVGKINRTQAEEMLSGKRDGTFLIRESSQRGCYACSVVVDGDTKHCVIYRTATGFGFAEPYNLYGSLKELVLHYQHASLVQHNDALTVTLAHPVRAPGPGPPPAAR

[11] = letrozole ± palbociclib portion of the study; cited from earlier work
[12] = target: p110a protein in PIK3CA H1047R-mutant HCC1954 cells (Homo sapiens, UniProt P42336, H1047R); assay: p110a Western blot, HCC1954 cells; format: cell-based; conditions: treatment up to 8 hours
Chain of p110a protein in PIK3CA H1047R-mutant HCC1954 cells (P42336 whole entry H1047R): as the sequence (P42336 whole entry H1047R) above

[13] = target: p110a in PIK3CA-WT HDQ-P1 cells (Homo sapiens, UniProt P42336); conditions: Western blot, 8 hours
Chain of p110a in PIK3CA-WT HDQ-P1 cells (P42336 whole entry): as the sequence (P42336 whole entry H1047R) above, with R1047H counted along it
Chain of p110a in PIK3CA-WT HDQ-P1 cells (P27986 whole entry partner): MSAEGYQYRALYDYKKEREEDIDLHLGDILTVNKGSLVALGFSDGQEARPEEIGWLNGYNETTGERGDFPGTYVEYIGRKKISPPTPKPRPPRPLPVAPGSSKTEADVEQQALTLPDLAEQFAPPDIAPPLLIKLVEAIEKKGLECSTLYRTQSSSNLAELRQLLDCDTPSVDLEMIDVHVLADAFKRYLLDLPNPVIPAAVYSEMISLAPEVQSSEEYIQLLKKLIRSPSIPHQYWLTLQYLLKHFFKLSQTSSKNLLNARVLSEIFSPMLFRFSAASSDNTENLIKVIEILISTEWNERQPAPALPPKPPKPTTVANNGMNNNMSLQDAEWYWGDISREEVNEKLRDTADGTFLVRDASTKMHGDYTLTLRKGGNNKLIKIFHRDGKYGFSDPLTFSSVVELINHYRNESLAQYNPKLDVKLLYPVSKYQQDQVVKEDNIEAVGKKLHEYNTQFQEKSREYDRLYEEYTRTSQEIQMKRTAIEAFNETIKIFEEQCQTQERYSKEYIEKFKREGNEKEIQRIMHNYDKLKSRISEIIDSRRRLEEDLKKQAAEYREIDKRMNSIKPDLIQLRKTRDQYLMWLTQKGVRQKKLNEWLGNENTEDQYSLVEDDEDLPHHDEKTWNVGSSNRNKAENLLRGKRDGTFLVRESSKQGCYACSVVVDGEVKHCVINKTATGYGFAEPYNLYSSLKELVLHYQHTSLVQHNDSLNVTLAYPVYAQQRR

Cc1nc(NC(=O)N2CCC[C@H]2C(N)=O)sc1-c1ccnc(C(C)(C)C(F)(F)F)c1 [Alpelisib, reference compound]
cytotoxic effects in primary human hepatocytes [1]: no cytotoxic effects
potency differential in mutant versus WT isogenic SW48 cells [2]: not have a potency differential

C[C@H](Nc1ccc2c(c1)OCCn1cc(N3C(=O)OC[C@H]3C(F)F)nc1-2)C(N)=O [GDC-0077]
cytotoxic effects in primary human hepatocytes [1]: no cytotoxic effects
tumor response at the MTD in PIK3CA-mutant xenograft and PDX models [3]: tumor regressions
GDC-0077 concentrations giving negative GR values (cytotoxic response) [4]: ≥ 0.12 µmol/L
p110a protein expression in HCC1954 xenograft tumors ([5]; single oral dose of 50 mg/kg): depleted p110a protein expression for up to 8 hours
fold difference between the mean IC50 values, GDC-0077 versus BYL719 [6]: ~20 fold
fold difference between the mean IC50 values, GDC-0077 versus BYL719 [7]: ~6 fold
pAKT / pathway inhibition over the 24-hour treatment time [8]: sustained inhibition of pAKT; also recorded: sustained pathway inhibition
p110a degradation at clinically relevant concentrations [9]: resulted in p110a degradation
mutant-specific (H1047R) p110a peptide by mass spectrometry [10]: loss of the mutant-specific peptide
drug–drug interactions [11]: No drug–drug interactions were observed

CC(C)n1ncnc1-c1cn2c(n1)-c1ccc(O[C@@H](C)C(N)=O)cc1OCC2 [GNE-326, (S)-2-((2-(1-Isopropyl-1H-1,2,4-triazol-5-yl)-5,6-dihydrobenzo[f]imidazo[1,2-d][1,4]oxazepin-9-yl)oxy)propanamide]
potency differential in mutant versus WT isogenic SW48 cells [2]: not have a potency differential

CS(=O)(=O)N1CCN(Cc2cc3nc(-c4cccc5[nH]ncc45)nc(N4CCOCC4)c3s2)CC1 [Pictilisib, 2-(1H-indazol-4-yl)-6-(4-methanesulfonyl-piperazin-1-ylmethyl)-4-morpholin-4-yl-thieno[3,2-d]pyrimidine]
potency differential in mutant versus WT isogenic SW48 cells [2]: comparable EC50

Cc1nc(-c2cn3c(n2)-c2ccc(-c4cnn(C(C)(C)C(N)=O)c4)cc2OCC3)n(C(C)C)n1 [Taselisib]
cytotoxic effects in primary human hepatocytes [1]: no cytotoxic effects
potency (EC50) increase in PIK3CA-mutant cells versus parental WT SW48 cells ([2]; H1047R or E545K knock-in versus parental): 3 fold
p110a protein level in HCC1954 cells [12]: dose-dependent depletion of p110a protein
membrane-associated p110a in HCC1954 xenograft tumors ([5]; 4 hours after a single oral dose of 15 mg/kg): depleted
p110a protein level in HDQ-P1 cells [13]: No significant change
p110a degradation at clinically relevant concentrations [9]: resulted in p110a degradation
mutant-specific (H1047R) p110a peptide by mass spectrometry [10]: loss of the mutant-specific peptide
